We go through 4 compounds from patent US20260317324A1, “BIFUNCTIONAL COMPOUNDS FOR DEGRADING BRAF VIA UBIQUITIN PROTEOSOME PATHWAY” (Nurix Therapeutics, Inc., priority 2023, published 2026).

Structures are written as SMILES. Bounds are passed on as bounds.

Assay type in all cases: cell-based
In one experiment the target is T1, BRAF V600E (Homo sapiens, UniProt P15056, V600E).
T1 construct: endogenous C-terminal HiBiT fusion tag on BRAF V600E allele; endogenous in cells; host or cells: A375 clone 1F10 (CRISPR-Cas9 knock-in of the HiBiT tag; parental A375 from ATCC)
Description: BRAF HiBiT degradation assay, C-terminal HiBiT-tagged BRAF V600E A375 cells (clone 1F10), Nano-Glo HiBiT Lytic assay. The following applies: for Dmax: A-375. The method in brief:
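Endogenous BRAF V600E-HiBiT A375 (1F10), 10,000 cells/well, 24 h preculture; cpd 11-pt, 1 μM–0.01 nM half-log, n=2, 0.2% DMSO; HiBiT lytic detection 10 min RT; DC50 = fitted conc at Y=50; Obs. Dmax vs DMSO.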

The next experiment concerns the target T2, BRAF G466V (Homo sapiens, UniProt P15056, G466V).
T2 construct: Horizon Discovery (HCT-116 BRAF−/− cells); host or cells: HCT-116 BRAF−/− cells, clone 8, lentiviral transduction
Description: BRAF HiBiT degradation assay, C-terminal HiBiT-tagged BRAF G466V overexpressed in HCT-116 BRAF−/− cells (clone 8), Nano-Glo HiBiT Lytic assay. The procedure, abridged:
(§1)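 Luminescence from the lytic HiBiT reagent, read after 10 min at room temperature, measured tagged BRAF remaining in lentivirally transduced HCT-116 BRAF−/− cells. Compounds were tested from 1 μM to 0.01 nM in half-log steps at 0.2% DMSO. DC50 values were fitted at 50% remaining.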
(The HiBiT peptide binds its large partner to form an active luciferase.)

The next experiment deals with T3, BRAF G469A (Homo sapiens, UniProt P15056, G469A).
T3 construct: Horizon Discovery (HCT-116 BRAF−/− cells); host or cells: HCT-116 BRAF−/− cells, clone 34, lentiviral transduction
As to the kind of experiment: BRAF HiBiT degradation assay, C-terminal HiBiT-tagged BRAF G469A overexpressed in HCT-116 BRAF−/− cells (clone 34), Nano-Glo HiBiT Lytic assay. The procedure, abridged:
as §1

A further experiment has as its target T4, BRAF D594G (Homo sapiens, UniProt P15056, D594G).
T4 construct: Horizon Discovery (HCT-116 BRAF−/− cells); host or cells: HCT-116 BRAF−/− cells, clone 63, lentiviral transduction
As to the kind of experiment: BRAF HiBiT degradation assay, C-terminal HiBiT-tagged BRAF D594G overexpressed in HCT-116 BRAF−/− cells (clone 63), Nano-Glo HiBiT Lytic assay. The procedure, abridged: as §1

[1] abbreviates: A375 (BRAF V600E, Class 1), DC50 at 50% degradation.
Setting [2] is: A375 (BRAF V600E, Class 1), observed Dmax, % protein degraded relative to DMSO control.
Setting [3] is: BRAF G466V (Class 3), HCT-116 BRAF−/− cells, DC50 at 50% degradation.
Setting [4] is: BRAF G466V (Class 3), HCT-116 BRAF−/− cells, observed Dmax relative to DMSO control.
The mark [5] stands for this setting: BRAF G469A (Class 2), HCT-116 BRAF−/− cells, DC50 at 50% degradation.
The mark [6] stands for this setting: BRAF G469A (Class 2), HCT-116 BRAF−/− cells, observed Dmax relative to DMSO control.
[7] abbreviates: BRAF D594G (Class 3), HCT-116 BRAF−/− cells, DC50 at 50% degradation.
[8] abbreviates: BRAF D594G (Class 3), HCT-116 BRAF−/− cells, observed Dmax relative to DMSO control.
Setting [9] is: A375 (BRAF V600E), DC50 at 50%: fitted conc. at Y=50.
[10] abbreviates: A375 (BRAF V600E), percentage protein degraded at maximal compound effect relative to DMSO.
The mark [11] stands for this setting: BRAF G466V, DC50 at 50%: fitted conc. at Y=50.
Where [12] appears, read: HCT-116, BRAF G466V, percentage protein degraded at maximal compound effect relative to DMSO.
Where [13] appears, read: Class 2, BRAF G469A, DC50 at 50%: fitted conc. at Y=50.
The mark [14] stands for this setting: HCT-116, Class 2, BRAF G469A, percentage protein degraded at maximal compound effect relative to DMSO.
[15] abbreviates: BRAF D594G, DC50 at 50%: fitted conc. at Y=50.
[16] abbreviates: HCT-116, BRAF D594G, percentage protein degraded at maximal compound effect relative to DMSO.

T1 sequence (P15056 whole entry V600E, the tested form may be a part): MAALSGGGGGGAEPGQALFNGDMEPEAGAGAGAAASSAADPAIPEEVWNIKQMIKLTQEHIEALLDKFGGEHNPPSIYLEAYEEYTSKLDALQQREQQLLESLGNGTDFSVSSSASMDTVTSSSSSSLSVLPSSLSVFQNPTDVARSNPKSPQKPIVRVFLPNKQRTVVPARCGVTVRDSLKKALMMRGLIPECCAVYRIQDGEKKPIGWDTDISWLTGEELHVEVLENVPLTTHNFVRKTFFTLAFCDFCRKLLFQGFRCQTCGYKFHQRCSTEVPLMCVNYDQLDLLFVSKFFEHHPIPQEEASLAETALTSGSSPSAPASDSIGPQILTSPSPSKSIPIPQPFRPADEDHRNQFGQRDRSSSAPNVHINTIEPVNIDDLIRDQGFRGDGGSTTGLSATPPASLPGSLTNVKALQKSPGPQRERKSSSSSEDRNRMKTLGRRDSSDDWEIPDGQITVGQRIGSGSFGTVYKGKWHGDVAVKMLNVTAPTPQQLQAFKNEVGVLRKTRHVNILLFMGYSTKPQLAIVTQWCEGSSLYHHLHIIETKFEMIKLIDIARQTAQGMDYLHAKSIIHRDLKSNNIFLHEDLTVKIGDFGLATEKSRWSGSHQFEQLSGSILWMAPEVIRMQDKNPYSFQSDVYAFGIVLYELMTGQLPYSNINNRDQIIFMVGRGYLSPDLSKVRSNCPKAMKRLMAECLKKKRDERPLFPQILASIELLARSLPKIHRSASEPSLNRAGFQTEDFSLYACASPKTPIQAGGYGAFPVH
T3 sequence (P15056 whole entry G469A): as the sequence (P15056 whole entry V600E, the tested form may be a part) above, with G469A, E600V counted along it
T2 sequence (P15056 whole entry G466V): as the sequence (P15056 whole entry V600E, the tested form may be a part) above, with G466V, E600V counted along it
T4 sequence (P15056 whole entry D594G): as the sequence (P15056 whole entry V600E, the tested form may be a part) above, with D594G, E600V counted along it

Take `O=C1CCC(c2ccc(N3CCC(CN4CCN(c5ccc(-n6cc(-c7cc(Cl)cc(NS(=O)(=O)N8CC[C@@H](F)C8)c7F)c(-c7ccncc7)n6)nc5)CC4)CC3)nc2)C(=O)N1` (mixture of isomers) [Compound 296, (3R)—N-{5-chloro-3-[1-(5-{4-[(1-{5-[(3RS)-2,6-dioxopiperidin-3-yl]pyridin-2-yl}piperidin-4-yl)methyl]piperazin-1-yl}pyridin-2-yl)-3-(pyridin-4-yl)-1H-pyrazol-4-yl]-2-fluorophenyl}-3-fluoropyrrolidine-1-sulfonamide]: the DC50 on BRAF V600E (setting [1]), on BRAF G466V (setting [3]), on BRAF G469A (setting [5]) and on BRAF D594G (setting [7]) was < 0.01 µM each time. Besides, the Dmax at BRAF V600E (setting [2]), at BRAF G466V (setting [4]), at BRAF G469A (setting [6]) and on BRAF D594G (setting [8]) was > 70% each time.

Regarding `CCCS(=O)(=O)Nc1cccc(-c2nc(C(C)(C)C)sc2-c2ccnc(Nc3ccc(N4CCN(C(=O)C5CCN(c6ccc(C7CCC(=O)NC7=O)cc6)CC5)CC4)cc3)n2)c1F` (racemic) [Compound 38, Rac-N-(3-{2-tert-butyl-5-[2-({4-[4-(1-{4-[(3R)-2,6-dioxopiperidin-3-yl]phenyl}piperidine-4-carbonyl)piperazin-1-yl]phenyl}amino)pyrimidin-4-yl]-1,3-thiazol-4-yl}-2-fluorophenyl)propane-1-sulfonamide], the DC50 at BRAF V600E (setting [9]) was < 0.01 µM; at BRAF G466V (setting [11]), > 0.5 µM; at BRAF G469A (setting [13]), 0.01 to 0.05 µM; on BRAF D594G (setting [15]) it was > 0.5 µM. The Dmax at BRAF V600E (setting [10]) is > 70%; at BRAF G466V (setting [12]), < 30%; at BRAF G469A (setting [14]), < 30%; at BRAF D594G (setting [16]) it was 30 to 70%.

`CCC(C)S(=O)(=O)Nc1cc(Cl)cc(-c2cn(-c3ccc(N4CCN(CC5CCN(c6ccc(N7CCC(=O)NC7=O)cc6)CC5)CC4)cc3)nc2-c2ccncc2)c1F` (racemic) [Compound 328, Rac-(2R)—N-[5-chloro-3-(1-{4-[4-({1-[4-(2,4-dioxo-1,3-diazinan-1-yl)phenyl]piperidin-4-yl}methyl)piperazin-1-yl]phenyl}-3-(pyridin-4-yl)-1H-pyrazol-4-yl)-2-fluorophenyl]butane-2-sulfonamide]: the DC50 on BRAF V600E (setting [1]) was < 0.01 µM; on BRAF G466V (setting [3]) it was 0.01 to 0.05 µM; on BRAF G469A (setting [5]), 0.05 to 0.5 µM; at BRAF D594G (setting [7]) it was < 0.01 µM. Moreover, the Dmax is > 70% on BRAF V600E (setting [2]), > 70% on BRAF G466V (setting [4]), 30 to 70% on BRAF G469A (setting [6]) and 30 to 70% at BRAF D594G (setting [8]).

Regarding `CCCS(=O)(=O)Nc1cccc(-c2nc(C(C)(C)C)sc2-c2ccnc(Nc3ccc(C4CCN(CC5CCN(c6cncc(C7CCC(=O)NC7=O)c6)CC5)CC4)cc3)n2)c1F` (racemic) [Compound 177, Rac-N-[3-(2-tert-butyl-5-{2-[(4-{1-[(1-{5-[(3R)-2,6-dioxopiperidin-3-yl]pyridin-3-yl}piperidin-4-yl)methyl]piperidin-4-yl}phenyl)amino]pyrimidin-4-yl}-1,3-thiazol-4-yl)-2-fluorophenyl]propane-1-sulfonamide], the DC50 was 0.01 to 0.05 µM on BRAF V600E (setting [9]), > 0.5 µM at BRAF G466V (setting [11]), > 0.5 µM at BRAF G469A (setting [13]) and > 0.5 µM at BRAF D594G (setting [15]). The Dmax on BRAF V600E (setting [10]) is > 70%; at BRAF G466V (setting [12]), < 30%; at BRAF G469A (setting [14]), < 30%; on BRAF D594G (setting [16]), < 30%.

By DC50 is commonly meant the concentration at which degradation of the target reaches its halfway point. The Dmax is the largest share of the target that was removed.
